Data set [1] concerns HepMat co-cultures. The experiment in a line: Co-treatment of HepMat co-cultures with OA & OCA or OA & ELN. Type of data set: cell-based, human. The following applies: 800 μM OA with 1 μM OCA or 30 μM ELN, 3 days. The procedure: A similar effect was observed on proinflammatory parameters.
(§1) Oleic acid (OA) exposure of HepMat-co-cultures and mono-cultures: Day 32 HepMat co-cultures and Day 32 HepMat HC3x HLC, HSC and Mφ mono-cultures were incubated with 800 μM of OA (Sigma-Aldrich) for 7 days (addition on day 0 and day 3). Day 32 HepMat co-cultures were also incubated with a combination 800 μM of OA and 1 μM Obeticholic acid (OCA) (Company) or 800 μM of OA and 30 μM Elafibranor (ELN) (Company) for 3 days (addition on day 0 only). Expression of inflammatory and fibrogenic genes was determined by RT-1PCR. Supernatants were collected for pro-collagen measurement by ELISA on day 3 and day 7. In addition, co-culture were assayed for presence of steatosis by BODIPY® staining on day 3 and day 7 as follows: Gels were transferred to Glass Bottom plates (cellvis) for live-cell imaging, following incubation with BODIPY® 493/503 for lipids (Thermo Fisher Scientific) and Hoechst (Sigma Aldrich). Sample was visualised and scanned on a laser scanning confocal microscope (LSM 880, Zeiss, Germany),
(§2) The supernatant was assayed for human TNF-alpha, ILla1pha, and IL6 by ELISA (Biolegend, CA, USA), according to the manufacturer's instructions. Presence of pro-collagen type I was detected by Pro-collagen Type I C-peptide ELISA kit (Takara Bio Inc). Secreted level of TNF-alpha, IL1alpha, IL6 and pro-collagen 1 were normalised for the cell number.

For data set [2] the following is noted: phase III; cited from earlier work.
The subject of data set [3] is HepMat co-cultures. The data set is described as follows: Oleic acid exposure of HepMat co-cultures (BODIPY, RT-qPCR, ELISA). The format is cell-based, human. The procedure:
(§3) d32 HepMat co-cultures were also exposed to 0.8 mM OA for 3 days (1 dose) and 7 days (2 doses).
as §1, §2

Data set [4] deals with HC3x HLC, HSC and Mφ mono-cultures. The data set is described as follows: Oleic acid exposure of HepMat mono-cultures. Type of data set: cell-based, human. The procedure: as §3, §1
The supernatant was assayed for human TNF-alpha, ILla1pha, and IL6 by ELISA (Biolegend, CA, USA), according to the manufacturer's instructions. Presence of pro-collagen type I was detected by Pro-collagen Type I C-peptide ELISA kit (Takara Bio Inc). […]

In data set [5] the test system is iETV2-ECs. The data set is described as follows: Oleic acid treatment of iETV2-ECs. The format is cell-based, human. The following applies: OA treatment. The procedure: as §3
In data set [6] the test system is PSC-HSCs. The experiment in a line: TGFβ exposure of HepMat-PSC-HSC cultures (24 h). Type of data set: cell-based, human. The following applies: 25 ng/mL TGFβ. The procedure: Day 12 HSC expressed ACTA2, PDG1FRα, COL1A1, COL3A1, COL5A2 and LOXL2 but low levels of LRAT (important for Vitamin-A metabolism in quiescent HSCs) and the more recently identified non-fibrotic HSC marker genes, RGS5 and IGFBP5 (FIGS. 3B and 3E). Accutase-harvested d12 PSC-HSCs were embedded at 3×10^5 cells/10 μl HepMat hydrogel, and maintained for 32 days in HSC medium. HSCs survived for 32 days in the HepMat hydrogel (Calcein-AM staining; FIG. 3B). […] Consistently, HSCs cultured in HepMat hydrogels stored retinol, as shown by BODIPY® staining and presence of typical blue autofluorescence elicited by UV light, even when cultured with low concentrations of palmitic acid (FIG. 3B). […] Thus, PSC-HSCs can be maintained for at least 32 days in the HepMat hydrogels. Moreover, culture of HSCs in these hydrogels may at least in part induce a less fibrotic HSC phenotype while still allowing TGFβ-mediated activation.
TGFβ exposure of HepMat-PSC-HSC cultures: Day 32 HepMat-PSC-HSC mono-cultures hydrogels were exposed to 25 ng/ml of TGFβ (Peprotech) on day 32. Expression of inflammatory and fibrogenic genes was determined by RT-1PCR. Supernatants were collected for pro-collagen measurement by ELISA.

Data set [7] concerns HepMat co-cultures. The experiment in a line: TGFβ exposure of HepMat co-cultures (RT-qPCR, ELISA). Type of data set: cell-based, human. The procedure:
(§4) It was investigated whether HepMat co-cultures could be used to model liver fibrosis/steatosis, by exposing cultures either to TGFβ or oleic acid (OA). d32 HepMat co-cultures were treated with 25 ng/ml of TGFβ for an additional 3 days (single administration) or 7 days (2 administrations). […] In addition, TGFβ induced a 7±0.4-fold higher level of pro-collagen and 17±3.4-fold higher level of IL6 on day 7 of treatment in HepMat co-culture supernatants. Pro-collagen levels were unchanged in HC3x-HLCs and PSC-Mφ mono-cultures and ±3-fold increase in PSC-HSCs following 3 and 7 days of treatment with TGFβ.
(§5) TGFβ exposure of HepMat-co-cultures and mono-cultures: Day 32 HepMat co-cultures and dayy 32 HepMat HC3x HLC, HSC and Mφ mono-cultures were incubated with 25 ng/ml TGFβ for 7 days (addition on day 0 and day 3). Expression of inflammatory and fibrogenic genes was determined by RT-qPCR. Supernatants were collected for pro-collagen measurement by ELISA.
as §2
For orientation: Quantitative PCR measures a nucleic acid by following its amplification.

For data set [8], the system named is HC3x-HLCs. The experiment in a line: TGFβ exposure of HC3x-HLC HepMat mono-cultures. Type of data set: cell-based, human. The procedure:
as §4, §5, §2

Data set [9] deals with PSC-HSCs. The experiment in a line: TGFβ exposure of PSC-HSC HepMat mono-cultures (3 and 7 days). Type of data set: cell-based, human. The procedure:
as §4, §5, §2

In data set [10] the test system is PSC-Mφs. The experiment in a line: TGFβ exposure of PSC-Mφ HepMat mono-cultures. Type of data set: cell-based, human. The conditions noted are these: supernatants. The procedure: as §4, §5, §2
Data set [11] concerns iETV2-ECs. Type of data set: cell-based, human.
Data set [12] has as its system PSC-Mφs. The data set is described as follows: LPS exposure of HepMat-PSC-Mφ cultures. The format is cell-based, human. The following applies: 100 ng/ml LPS. The procedure:
Mφs were generated from PSCs, using a protocol adapted from van Wilgenburg et al. (2013) PLoS One. 8, e71098 (FIG. 3C). […] Thus, PSC-Mφs could also be functionally maintained for at least 32 days in HepMat hydrogels.
LPS exposure of HepMat-PSC-MEs cultures: Day 32 HepMat-PSC-M[…]s mono-cultures were exposed to 100 ng/ml of LPS (Sigma-Aldrich). Expression of inflammatory genes was determined by RT-qPCR. Supernatants were collected for inflammatory cytokine measurement by ELISA.

[13] abbreviates: 25 ng/ml TGFβ, d32 HepMat co-cultures.

Like-named read-outs stand apart in the source and are kept apart here.

Take `CSc1ccc(C(=O)/C=C/c2cc(C)c(OC(C)(C)C(=O)O)c(C)c2)cc1` [ELN, elafibranor]: in [1], the COL1A1 transcript levels result is “inhibited”, the IL6 transcripts entry is listed as “significantly reduced”, the bodipy staining result was “significant reduction” and the “pro-collagen secretion in culture supernatants” value is “no effect”. In addition, the “production of secreted IL6” value in data set [1] was “did not inhibit”. Besides, in [2], the “improvement of liver fibrosis compared to placebo” value is given as “not significantly improve”.
In the case of `CCCCCCCC/C=C\CCCCCCCC(=O)O` [OA, oleic acid], the IL6 expression is listed as 1200 fold in data set [3] (0.8 mM OA, d3) and 1000 fold in [3] (0.8 mM OA, d7). Besides, the “lipid accumulation, BODIPY staining” value in data set [3] (0.8 mM OA, day 3, persisted until day 7) is “significant lipid accumulation”. Also, the “induction of COL1A1, COL1A3, COL5A2 as well as LOXL2” value in data set [3] (0.8 mM OA, day 7) is listed as “even greater induction”. For the same compound, the “increase in pro-collagen in supernatants” value in [3] (3 day after administration of OA) turned out to be 5±0.5 fold; in [3] (7 day after administration of OA), 12±1.5 fold. Besides, the “increase in IL6 in supernatants” value in [3] (day 7) amounted to 90±5 fold. Moreover, the “pro-collagen or inflammatory cytokines in supernatants” value in data set [4] (any of the mono-cultures) is “no significant changes”. In [4] (mono-cultures, 3 days after OA addition), the “induction in COL1A1 and COL3A1 transcripts” value was approximately 9 fold. The “survival of iETV2-ECs” value in data set [5] is “did not survive”.
On to TGFβ, for which the “secreted levels of pro-collagen” value in [6] (ELISA) is reported as “significantly higher levels”. Also, in data set [6] (d32 HepMat HSCs), the LRAT transcript levels result is “significant decrease” and the “expression of COL1A1” value was “significant increase”. In addition, in [7] (setting [13]), the “increase in transcripts for COL1A1” value is listed as 17±3.5 fold, the “increase in transcripts for COL3A1” value is recorded as 13±3.4 fold and the “increase in transcripts for COL5A2 or LOXL2” value is listed as “but not COL5A2 or LOXL2”. Also, in data set [7] (TGFβ exposure for 7 days), the “induction of IL1α transcripts” value was found to be 7±0.49 fold and the “induction of IL6 transcripts” value is given as 13±4.3 fold. In [7] (day 7 of treatment, ELISA), the “higher level of IL6 in supernatants” value was 17±3.4 fold and the “higher level of pro-collagen in supernatants” value is reported as 7±0.4 fold. Besides, in data set [8] (3 days treatment), the “induction of COL1A1 transcripts” value was determined as 9±1.6 fold. For the same compound, the “induction of COL1A1 transcripts” value in data set [8] (7 days treatment) was found to be 5±0.7 fold. In data set [8] (TGFβ, supernatants), the Pro-collagen levels result is “unchanged”. For the same compound, the “increase in pro-collagen levels” value in data set [9] (3 and 7 days of treatment with TGFβ) was approximately 3 fold. Also, in data set [9] (d3), the “induction of COL1A1 and COL3A1 transcripts” value was found to be 4±1.1 fold. For the same compound, in [10], the Pro-collagen levels entry is listed as “unchanged”. The “survival of iETV2-ECs” value in [11] is reported as “did not survive”.
On to lipopolysaccharide [LPS], for which the “secretion of TNFα, IL1α and IL6” value in [12] (ELISA, significant for IL6) is listed as “increased secretion of all three cytokines”. The “expression of TNFα, IL1α and IL6” value in data set [12] (additional 48 hours, RT-qPCR) is “significantly induced”.

These data come from US20230392121A1, “HYDROGELS FOR CELL CULTURE” (KATHOLIEKE UNIVERSITEIT LEUVEN, priority 2020, published 2023).
